# Measurements published in patent US11214803B2, “Modulators of YAP1 expression” (Ionis Pharmaceuticals, Inc., priority 2019, dated 2022).
# Legend:
# Type in all cases: in vivo, human
# ERK1/2 = assay: Measurement of ERK activation (pERK/ERK) in SNU449 xenograft model with sorafenib (second Example 30); settings: SNU449 xenograft tumors, pERK/ERK relative to PBS control, oligonucleotide 50 mg/kg, sorafenib 30 mg/kg orally
# Protocol: (§1) Five million SNU449 cells in 30% matrigel were implanted subcutaneously into the fatpads of female NOD.Cg-Prkdcscid II2rgtmlWjl/SzJ mice (from Jackson Laboratory) at 4-6 weeks of age. 43 days post implantation (when tumors had reached approximately 100 mm^3 in size), groups of eight mice each were administered with 50 mg/kg modified oligonucleotide daily for 10 days (loading dose), following which they were administered with 50 mg/kg modified oligonucleotide four times a week for one week, following which they were dosed with 50 mg/kg modified oligonucleotide thrice weekly until the end of the study.
# Protein analysis was carried out using standard procedures. […] ERK protein levels were compared to internal control GAPDH. […] The secondary antibody used was donkey anti-rabbit NA934, GE Healthcare. pERK/ERK levels were calculated relative to PBS control to determine % activation of ERK1/2.
# Yap1 mRNA = Yap1 mRNA levels in SNU449 xenograft tumors, alone and in combination with sorafenib (second Example 30); settings: SNU449 xenograft mice, oligonucleotide 50 mg/kg, sorafenib 30 mg/kg orally, tumors collected day 119 post implantation, relative to PBS
# Protocol: Modified oligonucleotides described in the studies above were tested in a hepatocellular carcinoma SNU449 xenograft tumor model. In addition to testing the modified oligonucleotide by itself, combination therapy with sorafenib was also tested. A control oligonucleotide 792169, described herein above, was also tested.
# as §1, with “study. […] Animals were sacrificed, and tumors were collected on day 119 post implantation.” for “study.”
# Yap1 mRNA knockdown in tumors was measured by RT-qPCR as previously described using the Human Yap1 primer-probe set RTS4814. Yap1 mRNA levels were normalized to actin-beta content, as measured by primer probe set RTS5002. Results are presented in the tables below as percent control of the amount of Yap1 mRNA relative to PBS treated animals (% control).
# SNU449 xenograft tumor = assay: Tumor volume in SNU449 xenograft tumor model, alone and in combination with sorafenib (second Example 30); settings: SNU449 xenograft, oligonucleotide 50 mg/kg, sorafenib 30 mg/kg orally
# Protocol: Modified oligonucleotides described in the studies above were tested in a hepatocellular carcinoma SNU449 xenograft tumor model. […] A control oligonucleotide 792169, described herein above, was also tested.
# as §1, with “study. […] Animals were sacrificed, and tumors were collected on day 119 post implantation.” for “study.”
# Tumor volumes were also measured at the indicated days in the table below.
smiles,measurement,setting,value
CNC(=O)c1cc(Oc2ccc(NC(=O)Nc3ccc(Cl)c(C(F)(F)F)c3)cc2)ccn1 [sorafenib],% activation of ERK1/2,ERK1/2,142%
same,Yap1 mRNA levels in tumors,Yap1 mRNA,103 % control
same,Average Tumor Volume,SNU449 xenograft tumor; day 43 post tumor implantation,112 mm^3
same,Average Tumor Volume,SNU449 xenograft tumor; day 46 post tumor implantation,145 mm^3
same,Average Tumor Volume,SNU449 xenograft tumor; day 50 post tumor implantation,159 mm^3
same,Average Tumor Volume,SNU449 xenograft tumor; day 53 post tumor implantation,173 mm^3
same,Average Tumor Volume,SNU449 xenograft tumor; day 57 post tumor implantation,200 mm^3
same,Average Tumor Volume,SNU449 xenograft tumor; day 67 post tumor implantation,277 mm^3
same,Average Tumor Volume,SNU449 xenograft tumor; day 71 post tumor implantation,249 mm^3
same,Average Tumor Volume,SNU449 xenograft tumor; day 75 post tumor implantation,283 mm^3
same,Average Tumor Volume,SNU449 xenograft tumor; day 78 post tumor implantation,322 mm^3
same,Average Tumor Volume,SNU449 xenograft tumor; day 81 post tumor implantation,391 mm^3
same,Average Tumor Volume,SNU449 xenograft tumor; day 85 post tumor implantation,416 mm^3
same,Average Tumor Volume,SNU449 xenograft tumor; day 88 post tumor implantation,451 mm^3
same,Average Tumor Volume,SNU449 xenograft tumor; day 92 post tumor implantation,508 mm^3
same,Average Tumor Volume,SNU449 xenograft tumor; day 94 post tumor implantation,581 mm^3
same,Average Tumor Volume,SNU449 xenograft tumor; day 98 post tumor implantation,625 mm^3
same,Average Tumor Volume,SNU449 xenograft tumor; day 101 post tumor implantation,685 mm^3
same,Average Tumor Volume,SNU449 xenograft tumor; day 105 post tumor implantation,671 mm^3
same,Average Tumor Volume,SNU449 xenograft tumor; day 108 post tumor implantation,663 mm^3
same,Average Tumor Volume,SNU449 xenograft tumor; day 119 post tumor implantation,747 mm^3
